Data as given in patent US7608623B2, “Hydroxyamidine and hydroxyguanidine compounds as urokinase inhibitors” (Wilex AG, priority 2003, dated 2009).

What was measured:
[1] = Solubility of WX-671 hydrogen sulfate in water; format: physicochemical; details: 25° C., calculated for the base
Source text: The purity was ≧98% (area % after HPLC).

[2] = Stability of WX-671 hydrogen sulfate (stirring in water/acetone; storage as solid); format: physicochemical
Procedure: 5 g of hydrogen sulfate were stirred in 25 ml of water/acetone (80/20) for 7 days, filtered and dried at room temperature for 60 h. […] After stirring, no increase in the content of organic contaminations was found (determination by HPLC).
After storage as a solid substance at 90° C. for 1 week, <1.5% organic contaminations were found (determination by HPLC).

BN-472 breast cancer = test: Breast cancer model BN-472, tumor growth and metastasis in the rat (WX-683); format: in vivo; details: BN-472 rat
Source text: BN-472 breast cancer fragments of approximately 20 mm in diameter were taken from a female donor animal. The tumor was excised, separated from the adhering connective tissue, rinsed with saline, and resuspended in HAM-F12 cell culture medium (Invitrogen BV, Breda, Netherlands), supplemented with 10% fetal calf serum (Hi Clone, Greiner BV, Alphen a/d Rijn, Netherlands). The tumor cortex was sliced into cubes of about 2 mm side length and implanted orthotopically under the mammary fat pad of the 4th right nipple of 7 to 9-weeks old recipient female BN rats. Of the grafted tumors, over 95% became palpable within 3 days, and metastasis to the lungs were detected within 2 to 4 weeks.
Shortly before starting the WX-683 treatment on day 3 after tumor transplantation, all rats were individually weighed and the size of the individual tumor measured as the product of the two largest perpendicular diameters. They were then assorted into groups consisting of 18 rats. The rats were pre-selected such that all treatment groups had similar average body weights and tumor size distributions at the start of the treatment. Control rats received 800 μl vehicle (0.01 N HCl) p.o. WX-683 was dissolved in vehicle at the appropriate concentrations and administered in a volume of 800 μl at dosages of 0.3 and 3 mg/kg by oral gavage once a day. The duration of WX-683 treatment ranged from 24 to 25 days, depending whether the tumor size exceeded the maximum tolerable burden. At the end of the treatment period, the rats were sacrificed, their tumors harvested, separated from the adhering connective tissue and the total tumor weight of every rat was determined. To assess the number of lung metastases, the lungs were fixed in Bouin's solution for at least 24 h. Subsequently the number of lung metastases were determined by counting the yellowish-white macroscopic foci on the lung surface (FIG. 7). This study was approved by the Independent Institutional Animal Care and Use Committee (DEC-Consult), Rotterdam, Netherlands, permit no: Erasmus MC OZP 136-03-01, issued on 01.03.2003.

[3] = test system: CA20948 rat pancreatic tumor; test: Pancreatic adenocarcinoma model CA20948; details: WX-UK1 0.3 mg/kg intraperitoneal, 3 weeks, vehicle 30.7%
BN472 breast cancer = test: Breast cancer model BN472, tumor growth and metastasizing in rats (WX-671); details: WX-UK1 i.p. 1 mg/kg daily, 30 days, BN472 rat mammary tumor model

For `CCOC(=O)N1CCN(C(=O)[C@H](Cc2cccc(/C(N)=N\O)c2)NS(=O)(=O)c2c(C(C)C)cc(C(C)C)cc2C(C)C)CC1.O=S(=O)(O)O` [WX-671 hydrogen sulfate], the solubility in water [1] was 1172.5 mg/L, the “increase in content of organic contaminations (HPLC)” value ([2]; after stirring in water/acetone (80/20) for 7 days) was “no increase” and the “stability of the salt to dissociation (stoichiometry)” value ([2]; stirred in water/acetone (80/20) for 7 days) was “stable to dissociation”. For the same molecule, the “organic contaminations (HPLC)” value ([2]; storage as solid at 90° C. for 1 week) was < 1.5%.

With `CCOC(=O)N1CCN(C(=O)[C@H](Cc2cccc(NC(=N)NO)c2)NS(=O)(=O)c2c(C(C)C)cc(C(C)C)cc2C(C)C)CC1` [WX-683, N-α-(2,4,6-triisopropylphenylsulfonyl)-3-hydroxyguanidino-(L)-phenylalanine-4-ethoxycarbonylpiperazide] the “reduction of median number of lung metastases” value (BN-472 breast cancer; oral 0.3 mg/kg/day) was 18%, the “reduction of median number of lung metastases” value (BN-472 breast cancer; oral 3 mg/kg/day) was 54% and the “reduction of median primary tumor weight” value (BN-472 breast cancer; oral, highest dosage used (3 mg/kg/day)) was 38%.

For `CCOC(=O)N1CCN(C(=O)[C@H](Cc2cccc(C(=N)N)c2)NS(=O)(=O)c2c(C(C)C)cc(C(C)C)cc2C(C)C)CC1.Cl` [WX-UK1], the “percentage large mets (>2 mm liver lesions of total liver lesions)” value [3] was 13.4% and the “reduction of average tumor weights at the end of the treatment compared to the control” value (BN472 breast cancer) was “approx. 5%”.
